Assay results: patent US7915293B2, “Ubiquitin ligase inhibitors” (Rigel Pharmaceuticals, Inc., priority 2003, dated 2011)
Values belong to the compound of their own block, whether it stands above or below them.

What was measured:
Design in all cases: key: “+” indicates that the compound exibits inhibitory activity; “−” indicates that low or no inhibitory activity was observed
HeLa cells [1] = assay: Non-photographic proliferation analysis (Promega Cell titer Aqueous), HeLa; format: cell-based; settings: 6 concentrations tested
Summary of the method: (§1)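 HeLa, A549 and HCT116 cells, 2,000 per well in RPMI with 5% FBS, were given compounds 24 h after plating as 6.3-fold duplicate dilutions from 10 mM stock, diluted 500-fold into the wells. After 48 h at 37° C, 5% CO2, Cell titer Aqueous reagent was added for 45 min and absorbance read at 490 nm.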

A549 cells [2] = assay: Non-photographic proliferation analysis (Promega Cell titer Aqueous), A549; format: cell-based; settings: 6 concentrations tested
Summary of the method: as §1

[3] = target: E3 (His-APC11/APC2-"APC") (Homo sapiens, UniProt Q9NYG5+Q9UJX6); assay: Plate-based E3 ligase assay (APC FLAG), auto-ubiquitination; format: biochemical; settings: 8 concentrations tested
Chain of E3 (His-APC11/APC2-"APC") (Q9NYG5 whole entry): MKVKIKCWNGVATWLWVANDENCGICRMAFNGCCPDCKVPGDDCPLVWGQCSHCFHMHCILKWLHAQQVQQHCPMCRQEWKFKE
Chain of E3 (His-APC11/APC2-"APC") (Q9UJX6 whole entry): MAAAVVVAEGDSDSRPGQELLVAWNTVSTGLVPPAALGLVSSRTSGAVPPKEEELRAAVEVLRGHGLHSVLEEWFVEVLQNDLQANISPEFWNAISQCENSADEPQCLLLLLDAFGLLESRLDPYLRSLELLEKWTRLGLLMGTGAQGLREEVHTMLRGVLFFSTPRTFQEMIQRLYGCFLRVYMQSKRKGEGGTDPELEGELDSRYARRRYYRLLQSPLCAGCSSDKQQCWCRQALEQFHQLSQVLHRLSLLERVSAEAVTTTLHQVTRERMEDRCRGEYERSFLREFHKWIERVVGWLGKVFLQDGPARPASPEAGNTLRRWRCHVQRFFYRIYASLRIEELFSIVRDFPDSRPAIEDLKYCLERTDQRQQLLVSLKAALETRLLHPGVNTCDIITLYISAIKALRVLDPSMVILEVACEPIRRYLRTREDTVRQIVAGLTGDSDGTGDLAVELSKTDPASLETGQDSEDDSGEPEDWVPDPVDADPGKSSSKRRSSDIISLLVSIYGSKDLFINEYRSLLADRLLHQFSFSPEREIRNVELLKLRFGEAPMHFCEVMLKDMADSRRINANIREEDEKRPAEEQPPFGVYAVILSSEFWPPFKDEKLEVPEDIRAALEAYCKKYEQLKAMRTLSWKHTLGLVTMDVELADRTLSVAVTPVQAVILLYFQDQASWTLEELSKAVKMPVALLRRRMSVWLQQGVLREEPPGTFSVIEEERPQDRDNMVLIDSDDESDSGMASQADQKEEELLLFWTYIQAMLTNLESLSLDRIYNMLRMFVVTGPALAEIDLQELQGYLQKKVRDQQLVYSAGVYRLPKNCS
Summary of the method: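 His-APC11/APC2 auto-ubiquitination was run in casein-blocked nickel plates for 1 h at room temperature, with E1 at 5 ng/well, UbcH5c at 20 ng/well and APC at 100 ng/well. Buffer was 62.5 mM Tris pH 7.6, 3 mM MgCl2, 1 mM DTT, 2.5 mM ATP and Flag-ubiquitin at 100 ng/well. Detection used anti-Flag/HRP chemiluminescence, and IC50 was typically from 6 or 8 concentrations versus a DMSO control.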

A549 cells [4] = assay: Cell proliferation assay, photographic image analysis of proliferation, apoptosis and death (PAD assay), A549; format: cell-based; settings: 6 concentrations tested
Summary of the method: (§2)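 Cells grown in RPMI with 5% FBS (2,000/well) and dosed 24 h after plating with 6.3-fold dilutions in duplicate (master plate 500× final, top 10 mM stock). After 48 h at 37 °C, cells formamide-fixed and DAPI-stained. Image analysis counted live, apoptotic and dead cells.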

HCT116 cells [5] = assay: Non-photographic proliferation analysis (Promega Cell titer Aqueous), HCT116; format: cell-based; settings: 6 concentrations tested
Procedure: (§3) A549 (ATCC# CCL-185), HeLa (ATCC# CCL-2), HCT116 (ATCC# CCL-247), and H1299 (ATCC# CRL-5803) cells were maintained in T175 flasks following the ATCC recommended media and handling procedures. Flasks reaching approximately 70% confluency were trypsinized and resuspended in RPMI media (Cell-Gro catalog number 10-040-CM) modified to contain 5% FBS, 100 ug/mlPen/Strep (Cell-Gro catalog number 30-002-CL), and 0.3 mg/ml L-Glutamine (Cell-Gro catalog number 25-003-CL). A 20,000 cells/ml solution was made for plating. Cells were plated in black Packard 96 well plates by placing 100 μl per well (2,000 cells per well).
(§4) Compounds and additional media were added 24 hours after cell plating. A compound master plate was created with concentrations 500 times greater than the final concentration added to the cells. All compound testing was done in duplicate using 6.3 fold dilutions starting with 10 mM. All outside wells (and 4 internal wells) were DMSO controls. Taxol and at least one additional control were run on all plates. Three microliters of the compound master plate were added to deep well blocks containing 750 μl of RPMI media. One hundred microliters were transferred from the compound/media deep well blocks to the plated cells resulting in a 500 fold dilution of the compounds. Cells were grown at 37° C., 5% CO2 for 48 hours.
Some cell plates were treated with Promega Cell titer Aqueous 1 kit (promega—VWR catalog number G3580). In this case, 48 hours after the test compound were added, 100 μl of media were removed and 20 μl of cell titer reagent were added to all wells. Plates were incubated at 37° C. for 45 minutes prior to absorbance reads on the Wallac plate reader at 490 nm for 0.1 sec/well.

HeLa cells [6] = assay: Cell proliferation assay, photographic image analysis of proliferation, apoptosis and death (PAD assay), HeLa; format: cell-based; settings: 6 concentrations tested
Summary of the method: as §2

MDM2 / p53 substrate = MDM2 / p53 substrate (Homo sapiens, UniProt Q00987); assay: Plate-based MDM2 substrate ligation assay (MDM2-P53-FLAG); format: biochemical; settings: 8 concentrations tested
Chain of MDM2 / p53 substrate (Q00987 whole entry): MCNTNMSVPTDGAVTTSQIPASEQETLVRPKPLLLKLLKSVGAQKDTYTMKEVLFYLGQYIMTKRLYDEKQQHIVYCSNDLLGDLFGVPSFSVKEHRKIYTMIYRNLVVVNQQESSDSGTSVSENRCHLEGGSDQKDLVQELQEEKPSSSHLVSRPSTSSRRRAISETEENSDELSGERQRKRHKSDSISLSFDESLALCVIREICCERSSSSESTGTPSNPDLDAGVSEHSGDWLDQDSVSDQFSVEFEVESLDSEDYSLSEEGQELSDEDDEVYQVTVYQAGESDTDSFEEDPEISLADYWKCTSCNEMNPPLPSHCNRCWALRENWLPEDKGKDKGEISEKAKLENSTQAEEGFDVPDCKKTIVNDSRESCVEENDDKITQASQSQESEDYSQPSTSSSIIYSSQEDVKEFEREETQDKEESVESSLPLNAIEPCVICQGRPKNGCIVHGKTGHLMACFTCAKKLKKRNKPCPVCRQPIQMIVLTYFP
Source text: This assay was preformed essentially as described in WO 03/076899 (page 77, line 5 to page 80, line 13), hereby incorporated by reference in its entirety.

HCT116 cells [7] = assay: Cell proliferation assay, photographic image analysis of proliferation, apoptosis and death (PAD assay), HCT116; format: cell-based; settings: 6 concentrations tested
Procedure: as §3, §4
(§5) Cells to be analyzed by photography were fixed and stained. One hundred microliters of media were removed and 100 μl of 9.3% […] was added to each well. Plates were left on the benchtop for 45 minutes. A staining solution containing 1.55 μl of 1 mg/ml DAPI added to 18.75 ml PBS was warmed for 15 minutes at 37° C. The cells were aspirated prior to washing with 100 μl of PBS. Seventy microliters of PBS were aspirated and 170 μl of the DAPI solution were added to each well of fixed cells. Plates were left at room temperature for one hour then aspirated and washed twice with 100 μl of PBS. The stained cells were left at 4° C. for a minimum of 16 hours before photographic analysis with Array Scan II (Cellomics). Analysis of the photographic images to determine numbers of live cells (proliferation), apoptotic cells and dead cells, were according to the methods described in U.S. Provisional Patent Application Ser. No. 60/406,714, which incorporated herein in its entirety.

H1299 cells = assay: Cell proliferation assay, photographic image analysis of proliferation, apoptosis and death (PAD assay), H1299; format: cell-based; settings: 6 concentrations tested
Procedure: as §3, §4, §5

SMILES: O=[N+]([O-])c1ccc(Oc2c(Cl)cc(S(=O)(=O)Nc3ccc(F)c(Cl)c3)cc2Cl)c(Cl)c1 [Example 16, 3,5-dichloro-N-(3-chloro-4-fluorophenyl)-4-(2-chloro-4-nitrophenoxy)benzene-sulfonamide]
- Cell Titer-Aqueous, HELA 6 pt (HeLa cells [1]): +
- Cell Titer-Aqueous, A549 6 pt (A549 cells [2]): +
- APC Flag 8 pt [3]: +
- PAD Assay, A549 6 pt (A549 cells [4]): −
- Cell Titer-Aqueous, HCT116 6 pt (HCT116 cells [5]): +

SMILES: CS/C(=N\S(=O)(=O)c1cc(Cl)c(Oc2ccc([N+](=O)[O-])cc2Cl)c(Cl)c1)Nc1ccc(Cl)cc1 [Example 149, methyl N-(4-chlorophenyl)-N′-{[3,5-dichloro-4-(2-chloro-4-nitrophenoxy)phenyl]sulfonyl} imidothiocarbamate]
- Cell Titer-Aqueous, HELA 6 pt (HeLa cells [1]): +
- Cell Titer-Aqueous, A549 6 pt (A549 cells [2]): +
- APC Flag 8 pt [3]: +
- PAD Assay, A549 6 pt (A549 cells [4]): +
- PAD Assay, HELA 6 pt (HeLa cells [6]): +
- Cell Titer-Aqueous, HCT116 6 pt (HCT116 cells [5]): +

SMILES: Cc1c(Cl)cccc1NS(=O)(=O)c1cc(Cl)c(Oc2ccc([N+](=O)[O-])cc2Cl)c(Cl)c1 [Example 147, 3,5-dichloro-N-(3-chloro-2-methylphenyl)-4-(2-chloro-4-nitrophenoxy)benzene-sulfonamide]
- Cell Titer-Aqueous, HELA 6 pt (HeLa cells [1]): +
- Cell Titer-Aqueous, A549 6 pt (A549 cells [2]): +
- APC Flag 8 pt [3]: +
- PAD Assay, A549 6 pt (A549 cells [4]): +
- PAD Assay, HELA 6 pt (HeLa cells [6]): +
- Cell Titer-Aqueous, HCT116 6 pt (HCT116 cells [5]): +

SMILES: O=C(NCC1CC1)c1ccccc1NS(=O)(=O)c1cc(Cl)c(Oc2ccc([N+](=O)[O-])cc2Cl)c(Cl)c1 [Example 123, N-(cyclopropylmethyl)-2-({[3,5-dichloro-4-(2-chloro-4-nitrophenoxy)phenyl]sulfonyl}amino)benzamide]
- MDM2-P53 Flag 8 pt (MDM2 / p53 substrate): −
- Cell Titer-Aqueous, HELA 6 pt (HeLa cells [1]): +
- Cell Titer-Aqueous, A549 6 pt (A549 cells [2]): +
- APC Flag 8 pt [3]: +
- PAD Assay, A549 6 pt (A549 cells [4]): +
- PAD Assay, HELA 6 pt (HeLa cells [6]): +
- Cell Titer-Aqueous, HCT116 6 pt (HCT116 cells [5]): +

SMILES: O=[N+]([O-])c1ccc(Oc2c(Cl)cc(S(=O)(=O)Nc3cccc(C(F)(F)F)c3)cc2Cl)c(Cl)c1 [Example 7, 3,5-dichloro-4-(2-chloro-4-nitrophenoxy)-N-[3-(trifluoromethyl)phenyl]benzene-sulfonamide]
- MDM2-P53 Flag 8 pt (MDM2 / p53 substrate): −

SMILES: O=[N+]([O-])c1ccc(Oc2c(Cl)cc(S(=O)(=O)Nc3cc(F)ccc3C(F)(F)F)cc2Cl)c(Cl)c1 [Example 235, 3,5-dichloro-4-(2-chloro-4-nitrophenoxy)-N-[5-fluoro-2-(trifluoromethyl)phenyl] benzenesulfonamide]
- APC Flag 8 pt [3]: +
- PAD Assay, A549 6 pt (A549 cells [4]): +
- PAD Assay, HELA 6 pt (HeLa cells [6]): +
- PAD Assay, H1299 6 pt (H1299 cells): +

SMILES: O=[N+]([O-])c1ccc(Oc2ccc(S(=O)(=O)Nc3cc(C(F)(F)F)ccc3Cl)cc2Cl)c(C(F)(F)F)c1 [Compound 264]
- APC Flag 8 pt [3]: +
- PAD Assay, A549 6 pt (A549 cells [4]): +
- PAD Assay, HELA 6 pt (HeLa cells [6]): +
- PAD Assay, H1299 6 pt (H1299 cells): +

SMILES: O=S(=O)(Nc1cc(Cl)ccc1C(F)(F)F)c1cc(Cl)c(Oc2ccc(Cl)cc2Cl)c(Cl)c1 [Compound 249, 3,5-dichloro-N-[5-chloro-2-(trifluoromethyl)phenyl]-4-(2,4-dichlorophenoxy) benzenesulfonamide]
- APC Flag 8 pt [3]: +
- PAD Assay, A549 6 pt (A549 cells [4]): +
- PAD Assay, HELA 6 pt (HeLa cells [6]): +
- PAD Assay, H1299 6 pt (H1299 cells): +

SMILES: O=[N+]([O-])c1ccc(Oc2c(Cl)cc(S(=O)(=O)Nc3cc(Cl)cc(Cl)c3)cc2Cl)c(Cl)c1 [Example 24, 3,5-dichloro-4-(2-chloro-4-nitrophenoxy)-N-(3,5-dichlorophenyl)benzenesulfonamide]
- MDM2-P53 Flag 8 pt (MDM2 / p53 substrate): +
- APC Flag 8 pt [3]: +
- PAD Assay, A549 6 pt (A549 cells [4]): −

Now from value to compound, other results behind:

- APC Flag 8 pt [3]: +
SMILES: O=[N+]([O-])c1ccc(Oc2c(Cl)cc(S(=O)(=O)Nc3cccc(Cl)c3)cc2Cl)c(Cl)c1 [Compound 154, 3,5-dichloro-4-(2-chloro-4-nitrophenoxy)-N-(3-chlorophenyl)benzenesulfonamide]
- Cell Titer-Aqueous, HELA 6 pt (HeLa cells [1]): +
- Cell Titer-Aqueous, A549 6 pt (A549 cells [2]): +
- PAD Assay, HCT116 6 pt (HCT116 cells [7]): −
- PAD Assay, A549 6 pt (A549 cells [4]): −
- PAD Assay, HELA 6 pt (HeLa cells [6]): −
- Cell Titer-Aqueous, HCT116 6 pt (HCT116 cells [5]): −

- APC Flag 8 pt [3]: −
SMILES: N=C(NS(=O)(=O)c1cc(Cl)c(Oc2ccc([N+](=O)[O-])cc2)c(Cl)c1)c1ccncc1 [Example 62, N-{[3,5-dichloro-4-(4-nitrophenoxy)phenyl]sulfonyl}pyridine-4-carboximidamide]
- Cell Titer-Aqueous, HELA 6 pt (HeLa cells [1]): +
- Cell Titer-Aqueous, A549 6 pt (A549 cells [2]): +
- PAD Assay, A549 6 pt (A549 cells [4]): +
- PAD Assay, HELA 6 pt (HeLa cells [6]): +
- Cell Titer-Aqueous, HCT116 6 pt (HCT116 cells [5]): +

- MDM2-P53 Flag 8 pt (MDM2 / p53 substrate): −
- APC Flag 8 pt [3]: +
SMILES: O=[N+]([O-])c1ccc(Oc2c(Cl)cc(S(=O)(=O)Nc3ccc(F)cc3)cc2Cl)c(Cl)c1 [Example 23, 3,5-dichloro-4-(2-chloro-4-nitrophenoxy)-N-(4-fluorophenyl)benzenesulfonamide]
- Cell Titer-Aqueous, HELA 6 pt (HeLa cells [1]): +
- Cell Titer-Aqueous, A549 6 pt (A549 cells [2]): +
- PAD Assay, A549 6 pt (A549 cells [4]): +
- PAD Assay, HELA 6 pt (HeLa cells [6]): +
- Cell Titer-Aqueous, HCT116 6 pt (HCT116 cells [5]): +

- APC Flag 8 pt [3]: +
SMILES: Cc1cccc(C)c1NS(=O)(=O)c1cc(Cl)c(Oc2ccc([N+](=O)[O-])cc2Cl)c(Cl)c1 [Example 146, 3,5-dichloro-4-(2-chloro-4-nitrophenoxy)-N-(2,6-dimethylphenyl)benzenesulfonamide]
- Cell Titer-Aqueous, HELA 6 pt (HeLa cells [1]): +
- Cell Titer-Aqueous, A549 6 pt (A549 cells [2]): +
- PAD Assay, A549 6 pt (A549 cells [4]): +
- PAD Assay, HELA 6 pt (HeLa cells [6]): +
- Cell Titer-Aqueous, HCT116 6 pt (HCT116 cells [5]): +
